Results published in patent publication US7670838B2, “Coupling of excitation and neurogenesis in neural stem/progenitor cells” (priority 2004, dated 2010).
“Also recorded” adds a separate entry of the source.

Key:
[1] = Tolerability of treatments in the in vivo neurogenesis assay; conditions: 4 mg/kg
[2] = test system: adult hippocampal NPCs in vivo; experiment: In vivo neurogenesis assay (BrdU labeling, hippocampus); parameters: species or system rat; conditions: for neuronal fraction of newborn cells: 1 mg/kg
adult hippocampal NPCs = experiment: Neurogenesis from adult NPCs on ethanol-fixed hippocampal substrate (MAP2ab); assay type: cell-based, rat; conditions: for neurogenesis with the agonist as stimulus: FPL 64176 5 μM, NMDA 50 μM
Protocol: Hippocampal cell culture. […] Tissue was treated with papain (20 U/ml) in 10 ml of this solution with additional (in mM) 1.7 cysteine, 1 CaCl2, and 0.5 EDTA for 45 min at 37° C. The digestion was stopped by replacing the solution with 10 ml of MEM/Earle's salts without L-glutamine along with 20 mM glucose, Serum Extender (1:1000), and 10% heat-inactivated fetal bovine serum containing 25 mg of bovine serum albumin (BSA) and 25 mg of trypsin inhibitor. The tissue was triturated in a small volume of this solution with a fire-polished Pasteur pipette, and ˜100,000 cells in 1 mL plated per coverslip in 24-well plates. Glass coverslips (pre-washed overnight in HCl followed by several 100% EtOH washes and flame sterilization) were coated overnight at 37° C. with 1:50 Matrigel (Collaborative Biomedical Products, Bedford, Mass.). Cells were plated in culture medium, Neurobasal containing 2× B-27 (Life Technologies) and 2 mM Glutamax-I (Life Technologies). […] For lightly fixed tissue experiments, stem/progenitor cells were plated after hippocampal cultures at 7 DIV were exposed to 70% EtOH at −20° C. for 30 min, then washed 2× in sterile PBS.
(§1) Stem cell coculture. […] Mitotic inhibitor FUDR (5-fluoro-2′-deoxyuridine) was included with uridine at 0.3 mM unless otherwise indicated at the start of the sixth day post-plating, after cell cycle exit and initiation of differentiation, to allow for long term culture (in some experiments 50 μM D-AP5 (RBI) was also included as noted in the text). Thereafter cultures were supplemented with NT3 to 20 ng/mL every 2-3 days until cocultures were 9-16 days old (control and experimental conditions were always conducted in parallel and therefore were age-matched at all times), at which point neurogenesis assays were performed.
(§2) Excitation of NPCs in coculture. […] Divalent cation concentration was maintained constant in external calcium variation experiments by replacement with equimolar magnesium. […] Persistent stimuli were used except where noted, to mimic areas of local persistent high activity and to avoid rebound or washoff effects. […] An advantage of using depolarization for these brief stimuli is that the logarithmic dependence of depolarization on extracellular potassium described by the Nernst equation obviates the need for extensive washing of the stimulated sample prior to reapplication of the control medium.
(§3) Immunocytochemistry and transfection. Cells were fixed in 4% formaldehyde (EM Sciences)/PBS for 20-30 min, washed 3×5 min in PBS/0.1 M glycine, permeabilized for 5 min in 0.1% Triton/PBS/3% BSA, washed 3×5 min in PBS/glycine, blocked for 1-2 hr in PBS/3% BSA, and incubated overnight at 4° C. in PBS/3%BSA/primary antibodies. Cells were then washed 3×5 min in PBS, incubated for 1 hr at 37° C. in PBS/3%BSA/secondary antibodies, washed 3×10 min in PBS, and mounted in Fluoromount (Electron Microscopy Sciences). TUNEL staining was performed with Apoptag Red (Serologicals). […] Cotransfections were carried out with Lipofectamine 2000 according to the manufacturer's instructions immediately after NPC plating. […] As with all experiments, stimulation or control conditions were initiated 24 hr after transfection on Day 1.
Confocal imaging and analysis. Images were acquired on a Zeiss LSM confocal microscope. Random fields containing GFP+ cells were selected for acquisition under GFP excitation without knowledge of experimental condition, and subsequently scanned using laser lines appropriate to excite the fluorophores corresponding to MAP2ab and other antigens. Data were analyzed using Metamorph software from Universal Imaging.

[3] = test system: voltage-activated Na+ current; assay type: cell-based, rat
[4] = test system: adult rat hippocampal NPCs; experiment: Neurogenesis from adult NPCs in living hippocampal coculture (MAP2ab); assay type: cell-based
Protocol: as §1, §2, §3
Confocal imaging and analysis. Images were acquired on a Zeiss LSM confocal microscope. Random fields containing GFP+ cells were selected for acquisition under GFP excitation without knowledge of experimental condition, and subsequently scanned using laser lines appropriate to excite the fluorophores corresponding to MAP2ab and other antigens. Data were analyzed using Metamorph software from Universal Imaging. […] Mean data from 12 independent experiments conducted with potassium depolarization were used as the reference point for effects of pharmacological interventions in coculture. For evaluation of proliferation and survival effects, daily cell counts as well as TUNEL and BrdU staining were performed in parallel stimulated and unstimulated cultures. BrdU was applied to cultures at 5 μM for 2 hr, and BrdU staining was conducted with a 20-30 min postfixation and subsequent incubation at 37° C. for 20-30 min in 1 N HCl. For Ca^2+ imaging, x-Rhod-1 AM (Molecular Probes) was loaded at 10 μM for 30 min at 37° C. into cells on the fixed coculture substrate 1-2 days after initiation of mitogen taper.

[5] = test system: adult rat hippocampal NPCs; experiment: Miniature EPSC recording of NPC progeny in coculture; assay type: cell-based; conditions: living coculture
[6] = test system: proliferating adult-derived NPCs; assay type: cell-based, rat; conditions: fixed substrate; x-Rhod-1
[7] = rat, in vivo
[8] = anti-mitotic agent added at day 1
[9] = adult rats, 4 mg/kg daily for 1 week, not statistically significant
[10] = rats, 1 mg/kg for 1 week, 30 days after treatment

In the case of `COC(=O)c1c(C)[nH]c(C)c1C(=O)c1ccccc1Cc1ccccc1` [FPL 64176], the overt dystonias [1] is reported as “did not lead to overt dystonias”, the “treated animals that died shortly before sacrifice” value ([1]; 7th experimental day) is reported as “two” and the “fraction of newborn (BrdU+) cells assuming the neuronal phenotype (Dcx+)” value ([2]; adult rats, 4 mg/kg daily for 1 week) is reported as “relative increase”. For the same compound, the “neurogenesis with the agonist as stimulus” value (adult hippocampal NPCs; fixed substrate) was “enhancement of neurogenesis” and the “neurogenesis after three 5 min pulses” value (adult hippocampal NPCs; fixed substrate, pulses on days 1, 3 and 5) was “enhanced neurogenesis to a similar extent as continuous excitatory stimulation; also recorded: effective”.

For `O=c1[nH]c(=O)n([C@H]2C[C@H](O)[C@@H](CO)O2)cc1F` [FUDR, 5-fluoro-2′-deoxyuridine], the cells killed (adult hippocampal NPCs; [8]) was “more than 95%” and the “neurogenic effects of excitation” value (adult hippocampal NPCs; [8]) was “abolished”.

In the case of `COC(=O)C1=C(C)NC(C)=C(C(=O)OC)C1c1ccccc1[N+](=O)[O-]` [nifedipine], the “GFAP/BrdU double-positive cells (astroglial phenotype)” value [2, 9] is reported as 58.8% and the “NG2/BrdU double-positive cells (oligodendroglial phenotype)” value [2, 9] is reported as 3.5%.

For `NC1=N[C@H](O)[C@H]2[C@H]3O[C@]4(O)O[C@@H]([C@@H](O)[C@@]2(N1)[C@@H]4O)[C@]3(O)CO` [TTX, Tetrodotoxin], the “inward Na+ current evoked with a step from -70 mV to -10 mV” value [3] was “reversibly blocked”.

In the case of `NC(CCCP(=O)(O)O)C(=O)O` [D-AP5], the “neurogenesis in the basal (Na) condition” value [4] is reported as “significant inhibition”, the excitation-induced neurogenesis ([4]; depolarization or glutamate, D-AP5 50 μM) is reported as “blocked” and the “neurogenesis enhancement by excitation” value (adult hippocampal NPCs; delayed application of D-AP5 on day 5, n=7) is reported as 2.76±0.95 fold. For the same compound, the excitation-induced neurogenesis (adult hippocampal NPCs; fixed substrate, K+ depolarization, nifedipine 10 μM, D-AP5 50 μM) was “inhibited” and the basal neurogenesis (adult hippocampal NPCs; fixed substrate, no stimulation, D-AP5 50 μM) was “inhibited”.

In the case of `CN[C@H](CC(=O)O)C(=O)O` [NMDA], the “neurogenesis with the agonist as stimulus” value (adult hippocampal NPCs; fixed substrate) is reported as “significant increase”.

For `CN1C(=O)CN=C(c2ccccc2)c2cc(Cl)ccc21` [diazepam], the “GFAP/BrdU double-positive cells (astroglial phenotype)” value ([2]; rat, in vivo, 4 mg/kg) was 58.5%, the “NG2/BrdU double-positive cells (oligodendroglial phenotype)” value ([2]; rat, in vivo, 4 mg/kg) was 4.7% and the “fraction of newborn (BrdU+) cells assuming the neuronal phenotype (Dcx+)” value ([2]; rat, in vivo, 4 mg/kg) was “significant reduction”.

For `N[C@@H](CCC(=O)O)C(=O)O` [glutamate], the “fraction of adult NPCs that received functional excitatory synaptic connections (mEPSCs)” value [5] was “increase”, the “mean MAP2ab intensity in the resulting neuronal progeny” value [4] was “no effect” and the “fraction of NPCs becoming neurons (MAP2ab+)” value ([4]; 50 μM glutamate from day 1) was “increase; also recorded: increased neurogenesis”. The “fraction of NPCs becoming neurons (MAP2ab+)” value ([4]; 50 μM glutamate from day 1, listed as Glu) was “promoted neurogenesis” and the “cells showing an increase in intracellular Ca2+” value [6] was 44 of 73.

For `COC(=O)C1=C(C)NC(C)=C([N+](=O)[O-])C1c1ccccc1C(F)(F)F` (centres unmarked) [BayK 8644], the tolerability [7] was “well-tolerated”, the “increase in total newborn cell number versus control” value [2, 10] was 2.5 fold and the “neuronal fraction of newborn cells” value [2, 10] was 120±11 % of control. The “neuronal fraction of newborn cells” value ([2]; rats, 1 mg/kg for 1 week, 30 days after treatment, listed as BayK) was 120%±11% and the “total BrdU+ cells per hippocampus (subgranular zone and hilus)” value ([2]; rats, 1 mg/kg for 1 week, 30 days after treatment, unbiased stereology) was 19633±2677.
